The results in this text go back to patent publication US20230017045A1, “PYRIDINE AND PYRIMIDINE CARBOXYLATE HERBICIDES AND METHODS OF USE THEREOF” (Dow AgroSciences LLC, priority 2017, published 2023).

The assay has as its system test plant species. As to the kind of experiment: Post-emergent herbicidal activity test (greenhouse, foliar spray, visual growth reduction). It is filed as in vivo. As to conditions: 140 g ai/ha, 14 days after application; for pest or weed control at 140 g/ha: post-emergence, 336 h. In a few lines: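 Plants grown in greenhouse (15 h photoperiod, 23-29° C day/22-28° C night) to first or second true leaf stage were sprayed overhead with compound in acetone/water/isopropanol/DMSO/crop oil/X-77 carrier at 187 L/ha. Injury was scored visually after 14 d on a 0-100% scale versus solvent-blank and untreated controls.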

Setting [1] is: ALOMY: blackgrass (Alopecurus myosuroides), read-out: Visual Growth Reduction (%) 14 Days After Application, ALOMY.
The mark [2] stands for this setting: AMARE: redroot pigweed (Amaranthus retroflexus), read-out: Visual Growth Reduction (%) 14 Days After Application, AMARE.
Setting [3] is: AVEFA: wild oat (Avena fatua), read-out: Visual Growth Reduction (%) 14 Days After Application, AVEFA.
Where [4] appears, read: CHEAL: lambsquarters (Chenopodium album), read-out: Visual Growth Reduction (%) 14 Days After Application, CHEAL.
Setting [5] is: CIRAR: canada thistle (Cirsium arvense), read-out: Visual Growth Reduction (%) 14 Days After Application, CIRAR.
[6] abbreviates: CYPES: yellow nutsedge (Cyperus esculentus), read-out: Visual Growth Reduction (%) 14 Days After Application, CYPES.
Setting [7] is: DIGSA: crabgrass (Digitaria sanguinalis), read-out: Visual Growth Reduction (%) 14 Days After Application, DIGSA.
[8] abbreviates: ECHCG: barnyardgrass (Echinochloa crus-galli), read-out: Visual Growth Reduction (%) 14 Days After Application, ECHCG.
[9] abbreviates: IPOHE: ivy-leaf morning glory (Ipomoea hederacea), read-out: Visual Growth Reduction (%) 14 Days After Application, IPOHE.
The mark [10] stands for this setting: ORYSA: rice (Oryza sativa), read-out: Visual Growth Reduction (%) 14 Days After Application, ORYSA.
The mark [11] stands for this setting: SETFA: giant foxtail (Setaria faberi), read-out: Visual Growth Reduction (%) 14 Days After Application, SETFA.
Setting [12] is: SORVU: grain sorghum (Sorghum vulgare), read-out: Visual Growth Reduction (%) 14 Days After Application, SORVU.
Where [13] appears, read: STEME: common chickweed (Stellaria media), read-out: Visual Growth Reduction (%) 14 Days After Application, STEME.
Where [14] appears, read: TRZAS: wheat, spring (Triticum aestivum), read-out: Visual Growth Reduction (%) 14 Days After Application, TRZAS.
The mark [15] stands for this setting: KCHSC: kochia (Bassia scoparia), read-out: Visual Growth Reduction (%) 14 Days After Application, KCHSC.

Each structure is given as a SMILES string. Like-named read-outs stand apart in the source and are kept apart here.

In the case of `COC(=O)c1nc(-c2ccc(Cl)cc2)cc(Cl)c1Cl` [F80, Methyl 3,4-dichloro-6-(4-chlorophenyl) picolinate], the pest or weed control at 140 g/ha reads like this: under setting [1], 0 to 29%; under setting [2], 60 to 74%; under setting [3], 0 to 29%; under setting [4], 30 to 44%; under setting [5], 0 to 29%; under setting [6], 0 to 29%. The pest or weed control at 140 g/ha fell in the range of 0 to 29% under setting [7]; 0 to 29% under setting [8]; 45 to 59% under setting [9]; 0 to 29% under setting [10]; 0 to 29% under setting [11]; 0 to 29% under setting [12]. Also, the pest or weed control at 140 g/ha was in the range of 0 to 29% under setting [13] and 0 to 29% under setting [14].

With `O=C(OCc1ccncc1)c1nc(-c2ccc(C(F)(F)F)cc2Cl)ccc1Cl` [F81, Pyridin-4-ylmethyl 3-chloro-6-(2-chloro-4-(trifluoromethyl)phenyl)picolinate], the pest or weed control at 140 g/ha under setting [1] lay within 60 to 74%; the pest or weed control at 140 g/ha under setting [2] is 95 to 100%; the pest or weed control at 140 g/ha under setting [3] is 60 to 74%; the pest or weed control at 140 g/ha under setting [4] was 75 to 84%; the pest or weed control at 140 g/ha under setting [5] lay in the range of 95 to 100%; the pest or weed control at 140 g/ha under setting [6] lay in the range of 0 to 29%. The pest or weed control at 140 g/ha was 95 to 100% under setting [7]; 95 to 100% under setting [8]; 95 to 100% under setting [9]; 95 to 100% under setting [15]; 60 to 74% under setting [10]; 95 to 100% under setting [11]. The pest or weed control at 140 g/ha by setting is: under setting [12], 85 to 94%; under setting [13], 0 to 29%; under setting [14], 75 to 84%.

For `COC(=O)c1nc(-c2ccc(Cl)cc2)ccc1Cl` [F82, methyl 3-chloro-6-(4-chlorophenyl)picolinate], the pest or weed control at 140 g/ha is, setting by setting: under setting [1], 0 to 29%; under setting [2], 95 to 100%; under setting [3], 0 to 29%; under setting [4], 60 to 74%; under setting [5], 75 to 84%; under setting [6], 75 to 84%. Also, the pest or weed control at 140 g/ha runs as follows: under setting [7], 0 to 29%; under setting [8], 0 to 29%; under setting [9], 75 to 84%; under setting [15], 60 to 74%; under setting [10], 0 to 29%; under setting [12], 0 to 29%. Besides, the pest or weed control at 140 g/ha under setting [13] was in the range of 30 to 44%.

`COC(=O)c1nc(-c2ccc(Cl)c([N+](=O)[O-])c2)ccc1Cl` [F83, Methyl 3-chloro-6-(4-chloro-3-nitrophenyl) picolinate]: the “Visual Growth Reduction (%) 14 Days After Application, ALOMY” value (ALOMY: blackgrass (Alopecurus myosuroides)) is listed as “G (0-29)”. Besides, the “Visual Growth Reduction (%) 14 Days After Application, AMARE” value (AMARE: redroot pigweed (Amaranthus retroflexus)) is “G (0-29)”. The “Visual Growth Reduction (%) 14 Days After Application, AVEFA” value (AVEFA: wild oat (Avena fatua)) is “G (0-29)”. Moreover, the “Visual Growth Reduction (%) 14 Days After Application, CHEAL” value (CHEAL: lambsquarters (Chenopodium album)) is “G (0-29)”. The “Visual Growth Reduction (%) 14 Days After Application, CIRAR” value (CIRAR: canada thistle (Cirsium arvense)) is reported as “G (0-29)”. The “Visual Growth Reduction (%) 14 Days After Application, CYPES” value (CYPES: yellow nutsedge (Cyperus esculentus)) was “G (0-29)”. Further, the “Visual Growth Reduction (%) 14 Days After Application, DIGSA” value (DIGSA: crabgrass (Digitaria sanguinalis)) was “G (0-29)”. Further, under “ECHCG: barnyardgrass (Echinochloa crus-galli)”, the “Visual Growth Reduction (%) 14 Days After Application, ECHCG” value is recorded as “G (0-29)”. In addition, for the setting “IPOHE: ivy-leaf morning glory (Ipomoea hederacea)”, the “Visual Growth Reduction (%) 14 Days After Application, IPOHE” value is on record as “G (0-29)”. Besides, the “Visual Growth Reduction (%) 14 Days After Application, KCHSC” value (KCHSC: kochia (Bassia scoparia)) is “G (0-29)”. For the same compound, under “ORYSA: rice (Oryza sativa)”, the “Visual Growth Reduction (%) 14 Days After Application, ORYSA” value is “G (0-29)”. Besides, where the note is “SETFA: giant foxtail (Setaria faberi)”, the “Visual Growth Reduction (%) 14 Days After Application, SETFA” value was “G (0-29)”. For the same compound, where the note is “SORVU: johnsongrass (Sorghum vulgare)”, the “Visual Growth Reduction (%) 14 Days After Application, SORVU” value was “G (0-29)”. For the same compound, the “Visual Growth Reduction (%) 14 Days After Application, STEME” value (STEME: common chickweed (Stellaria media)) was “G (0-29)”. Besides, the “Visual Growth Reduction (%) 14 Days After Application, TRZAS” value (TRZAS: wheat, spring (Triticum aestivum)) is reported as “G (0-29)”.

On to `O=C(O)c1nc(-c2ccc(C(F)(F)F)nc2)c(Cl)cc1Cl` [F84, 3,5-dichloro-6′-(trifluoromethyl)-[2,3′-bipyridine]-6-carboxylic acid], for which the pest or weed control at 140 g/ha was 0 to 29% under setting [1]; 0 to 29% under setting [2]; 0 to 29% under setting [3]; 45 to 59% under setting [4]; 0 to 29% under setting [5]; 0 to 29% under setting [6]. The pest or weed control at 140 g/ha runs as follows: under setting [7], 30 to 44%; under setting [8], 0 to 29%; under setting [9], 0 to 29%; under setting [15], 0 to 29%; under setting [10], 0 to 29%; under setting [11], 0 to 29%. Besides, the pest or weed control at 140 g/ha under setting [12] was in the range of 0 to 29%, the pest or weed control at 140 g/ha under setting [13] lay within 0 to 29% and the pest or weed control at 140 g/ha under setting [14] lay in the range of 0 to 29%.

`COC(=O)c1nc(-c2ccc3c(c2F)OCO3)ccc1Cl` [F85, Methyl 3-chloro-6-(4-fluorobenzo[d][1,3]dioxol-5-yl)picolinate]: the pest or weed control at 140 g/ha lay in the range of 0 to 29% under setting [1]; 0 to 29% under setting [2]; 0 to 29% under setting [3]; 75 to 84% under setting [4]; 0 to 29% under setting [5]; 0 to 29% under setting [6]. The pest or weed control at 140 g/ha by setting is: under setting [7], 0 to 29%; under setting [8], 30 to 44%; under setting [9], 0 to 29%; under setting [15], 45 to 59%; under setting [10], 0 to 29%; under setting [11], 0 to 29%. Moreover, the pest or weed control at 140 g/ha is, setting by setting: under setting [12], 0 to 29%; under setting [13], 0 to 29%; under setting [14], 0 to 29%.

On to `COC(=O)c1nc(-c2ccc(C(F)(F)F)nc2)c(O)cc1Cl` [F87, methyl 5-chloro-3-hydroxy-6′-(trifluoromethyl)-[2,3′-bipyridine]-6-carboxylate], for which the pest or weed control at 140 g/ha under setting [1] was in the range of 0 to 29%; the pest or weed control at 140 g/ha under setting [2] is 0 to 29%; the pest or weed control at 140 g/ha under setting [3] was 0 to 29%; the pest or weed control at 140 g/ha under setting [4] lay within 0 to 29%; the pest or weed control at 140 g/ha under setting [5] fell in the range of 0 to 29%; the pest or weed control at 140 g/ha under setting [6] fell in the range of 0 to 29%. The pest or weed control at 140 g/ha under setting [7] lay within 0 to 29%; the pest or weed control at 140 g/ha under setting [8] fell in the range of 0 to 29%; the pest or weed control at 140 g/ha under setting [9] is 0 to 29%; the pest or weed control at 140 g/ha under setting [15] was in the range of 0 to 29%; the pest or weed control at 140 g/ha under setting [10] was 0 to 29%; the pest or weed control at 140 g/ha under setting [11] was 0 to 29%. In addition, the pest or weed control at 140 g/ha under setting [12] lay within 0 to 29%, the pest or weed control at 140 g/ha under setting [13] was 0 to 29% and the pest or weed control at 140 g/ha under setting [14] was in the range of 0 to 29%.
